# Patent US6521736B2, “Amphiphilic polymeric materials” (priority 2000, dated 2003)
# Legend:
# [1] = Encapsulation of small molecules in PEG-1500-DMOI micelles, determined by UV spectroscopy; format: physicochemical; conditions: for loading of complexed drug: complexed with PEG-1500-DMOI from 4:1 chloroform/methanol, taken up in water, UV
# Experimental: Benzo[a]Pyrene (BP), a dye and potent carcinogen, was chosen as a hydrophobic model because BP encapsulation within aqueous micelles of the PEG-1500-DMOI polymer can be monitored by UV absorption spectroscopy. The amount of dye encapsulated in the micelles was readily determined by UV spectroscopy since an absorbance signal due to benzo[a]pyrene appeared in the 340-450 nm region only when the dye was solubilized within the aqueous micelle. Different concentrations of dye were prepared in dichloromethane and each was added to a constant amount of polymeric micelle solution (1 ml of 100 mg/ml). Polymer-dye complex films were cast on glass and dried under vacuum at room temperature overnight. The films were then removed and redissolved in water by sonication at 35° C. for 10 minutes, and purified by filtration from excess dye. A homogenous, stable solution of the dye was formed at concentrations of more than 0.25 wt %, indicating partitioning of the dye into the micellar core. The maximum loading capacity of the dye was 0.88% (w/w). […] A partition coefficient of 5×10^4 was determined, indicating strong partitioning.
# In other experiments using this encapsulation method, PEG-1500-DMOI was complexed with either camptothecin or etoposide by combining the polymer and drug in a 4:1 chloroform/methanol mixture, then evaporating the resulting mixture overnight at room temperature under vacuum. The residue was treated with 5 ml water and filtered to remove any uncomplexed camptothecin. The solution was then examined with UV spectroscopy to determine the amount of complexed drug.
# CD4+HeLa cells = conditions: non-encapsulated drug; cited from earlier work
# HIV-1 Rev = conditions: CD4+HeLa cells, non-encapsulated drug; cited from earlier work
# HIVLAI = conditions: unencapsulated drug; cited from earlier work
# mammalian cell cultures = assay: Cell growth, morphology and viability (XTT dye) in mammalian cell cultures; format: cell-based; conditions: 1 mM extracellular unencapsulated drug
# Experimental: […] At higher concentrations (e.g., 30 μM), loss of cell viability was seen. Host cell translation was monitored by the expression of inducible β-galactosidase activity; cell viability was monitored spectrophotometrically using XTT dye.
# [2] = in aqueous PEG-1500-DMOI micelles
compound,measurement,setting,value
COc1cc([C@@H]2c3cc4c(cc3[C@@H](O[C@@H]3O[C@@H]5CO[C@@H](C)O[C@H]5[C@H](O)[C@H]3O)[C@H]3COC(=O)[C@H]23)OCO4)cc(OC)c1O [etoposide],loading of complexed drug,[1],3.1 % (w/w)
c1ccc2c(c1)cc1ccc3cccc4ccc2c1c34 [Benzo[a]Pyrene],partition coefficient,[1],5×10^4
same,"dye concentration at which a homogenous, stable solution was formed",[1]; [2],more than 0.25 wt %
same,maximum loading capacity of the dye,[1]; [2],0.88 % (w/w)
kazugamycin [non-encapsulated kazugamycin],concentration at which decreased cell proliferation and necrosis occur,CD4+HeLa cells,35 µM
same,concentration that blocks HIV-1 Rev function,HIV-1 Rev,25 µM
CC[C@@]1(O)C(=O)OCc2c1cc1n(c2=O)Cc2cc3ccccc3nc2-1 [camptothecin],loading of complexed drug,[1],1.25 % (w/w)
"NC[C@@H]1O[C@H](O[C@H]2[C@@H](O)[C@H](O[C@@H]3[C@@H](O)[C@H](N)C[C@H](N)[C@H]3O[C@H]3O[C@H](CN)[C@@H](O)[C@H](O)[C@H]3N)O[C@@H]2CO)[C@H](N)[C@@H](O)[C@@H]1O [unencapsulated neomycin B, neomycin B]","concentration that inhibits HIV production, previously reported",HIVLAI,"2,500-5,000 μM"
"C=C(NC(=O)C(=C)NC(=O)c1csc(C2=N[C@@H]3c4csc(n4)[C@H]4NC(=O)c5csc(n5)[C@H]([C@](C)(O)[C@@H](C)O)NC(=O)[C@H]5CSC(=N5)/C(=C/C)NC(=O)[C@H]([C@@H](C)O)NC(=O)c5csc(n5)[C@]3(CC2)NC(=O)[C@H](C)NC(=O)C(=C)NC(=O)[C@H](C)NC(=O)[C@H]([C@@H](C)CC)N[C@@H]2C=Cc3c([C@H](C)O)cc(nc3[C@H]2O)C(=O)O[C@@H]4C)n1)C(N)=O [unencapsulated thiostrepton, thiostrepton]",effect on cell growth or cell morphology,mammalian cell cultures,no detectable effect
